Results from patent US9133129B2, “Bicyclic compound” (TAKEDA PHARMACEUTICAL COMPANY LIMITED, priority 2011, dated 2015).

Biological target: T1, human ACC2 (Homo sapiens, UniProt O00763)
T1 construct: made in house; host or cells: SF-9 insect cells, recombinant baculovirus BAC-ACC2 (Nd)
Test: ACC2 inhibitory activity, malachite green assay with recombinant ACC2 (Nd)
Type: biochemical
Details: 10 μM of the test compound; 10 µM
Description: The ACC2 inhibitory action of the compound of the present invention was evaluated by the following method.
(1) Cloning of Human ACC2 Gene and Preparation of Recombinant Baculovirus
Human ACC2 gene was cloned by PCR using a human skeletal muscle cDNA library (Clontech) as a template and Primer 1 and Primer 2 shown below. Primer 1 and Primer 2 were prepared by adding SalI, XbaI restriction enzyme recognition sequences based on the information of the base sequence of human ACC2 gene (Genbank Accession U89344).
(§1) PCR was performed using Pyrobest DNA polymerase (TAKARA BIO INC.). The obtained PCR product was cloned to pT7 Blue vector (Novagen) and after confirmation of the base sequence, digested with restriction enzymes SalI and XbaI. The obtained DNA fragment was inserted into pFAST-BacHTa (Invitrogen) digested with restriction enzymes SalI and XbaI to give expression plasmid ACC2/pFAST-BacHTa.
A plasmid for expression of ACC2 without a mitochondrial targeting sequence was prepared by PCR using the expression plasmid as a template, and Primer 3 (SalI restriction enzyme recognition sequence was added) and Primer 4, which are prepared by reference to the information of human ACC2 gene base sequence (Genbank Accession U89344).
as §1, with “Pyrobest-DNA” for “Pyrobest DNA”, “AflII.” for “XbaI.”, “ACC2/pFAST-BacHTa” for “pFAST-BacHTa (Invitrogen)”, “AflII” for “XbaI”, “ACC2mito7/pFAST-BacHTa.” for “ACC2/pFAST-BacHTa.”
Using the expression plasmid ACC2mito7/pFAST-BacHTa and BAC-TO-BAC Baculovirus Expression System (Invitrogen), virus stock BAC-ACC2 of recombinant Baculovirus (N terminal deleted (hereinafter Nd)) was prepared.
(2) Preparation of ACC2 (Nd) Protein
SF-9 cells (Invitrogen) were inoculated to a medium (10 L) for insect cells (Sf-900IISFM medium (Invitrogen) containing 5% fetal bovine serum (Trace), 50 mg/L Gentamicin (Wako), 0.1% Pluronic F-68 (Invitrogen)) at 1.0×10^6 cells/mL, and cultured with shaking in Wave Bioreactor (GE Health Care) at 27° C., 20 rpm, rocking angle 10°, oxygen concentration 30%.
On day 2 of the culture, recombinant Baculovirus BAC-ACC2 (Nd) was added, and the cells were cultured for 3 days. The culture medium was centrifuged at 1000×g for 10 min to give virus-infected cells. The cells were washed with phosphate buffered saline (Invitrogen) and centrifuged under the same conditions. The obtained cells were cryopreserved at −80° C.
The cryopreserved cells were thawed in ice and suspended in 900 mL of 25 mM HEPES buffer (pH 7.5) containing 10% Glycerol, 0.3 M NaCl, 1 mM EDTA, 25 mM Sodium β-Glycerophosphate and 1 mM Sodium Orthovanadate, and supplemented with Complete Protease Inhibitor (Roche). The obtained suspension was homogenized three times in a polytron homogenizer (Kinematica) at 20,000 rpm for 30 sec. The obtained cell disruption solution was clarified by centrifugation at 186000×g for 60 min. To the supernatant was added 5 mL of AF-chelate 650M Ni chelated carrier (TOSOH), and the mixture was rotated at 4° C. for 1 hr, and centrifuged at 1000×g for 5 min, and the carrier was transferred to opened column. The column was washed with 50 mL of buffer A (50 mM HEPES (pH 7.5) containing 0.3 M NaCl), further washed with buffer A containing 20 mM Imidazole, and eluted with buffer A containing 250 mM Imidazole. The eluate was concentrated with Amicon Ultra 15 (Millipore) with a molecular weight cut off of 50K. The obtained concentrate was filtered using gelfiltration column (HiLoad 26/60 Superdex200 prep grade) (GE Health Care) with 50 mM HEPES buffer (pH 7.5) containing 10 mM MgCl2, 2 mM Dithiothreitol, 10 mM Tripotassium Citrate and 0.3 M NaCl to give ACC2 (Nd). The obtained ACC2 (Nd) was cryopreserved at −80° C.
(3) Measurement of ACC2 Inhibitory Activity […]

T1 sequence (O00763 117-2458 limits assumed): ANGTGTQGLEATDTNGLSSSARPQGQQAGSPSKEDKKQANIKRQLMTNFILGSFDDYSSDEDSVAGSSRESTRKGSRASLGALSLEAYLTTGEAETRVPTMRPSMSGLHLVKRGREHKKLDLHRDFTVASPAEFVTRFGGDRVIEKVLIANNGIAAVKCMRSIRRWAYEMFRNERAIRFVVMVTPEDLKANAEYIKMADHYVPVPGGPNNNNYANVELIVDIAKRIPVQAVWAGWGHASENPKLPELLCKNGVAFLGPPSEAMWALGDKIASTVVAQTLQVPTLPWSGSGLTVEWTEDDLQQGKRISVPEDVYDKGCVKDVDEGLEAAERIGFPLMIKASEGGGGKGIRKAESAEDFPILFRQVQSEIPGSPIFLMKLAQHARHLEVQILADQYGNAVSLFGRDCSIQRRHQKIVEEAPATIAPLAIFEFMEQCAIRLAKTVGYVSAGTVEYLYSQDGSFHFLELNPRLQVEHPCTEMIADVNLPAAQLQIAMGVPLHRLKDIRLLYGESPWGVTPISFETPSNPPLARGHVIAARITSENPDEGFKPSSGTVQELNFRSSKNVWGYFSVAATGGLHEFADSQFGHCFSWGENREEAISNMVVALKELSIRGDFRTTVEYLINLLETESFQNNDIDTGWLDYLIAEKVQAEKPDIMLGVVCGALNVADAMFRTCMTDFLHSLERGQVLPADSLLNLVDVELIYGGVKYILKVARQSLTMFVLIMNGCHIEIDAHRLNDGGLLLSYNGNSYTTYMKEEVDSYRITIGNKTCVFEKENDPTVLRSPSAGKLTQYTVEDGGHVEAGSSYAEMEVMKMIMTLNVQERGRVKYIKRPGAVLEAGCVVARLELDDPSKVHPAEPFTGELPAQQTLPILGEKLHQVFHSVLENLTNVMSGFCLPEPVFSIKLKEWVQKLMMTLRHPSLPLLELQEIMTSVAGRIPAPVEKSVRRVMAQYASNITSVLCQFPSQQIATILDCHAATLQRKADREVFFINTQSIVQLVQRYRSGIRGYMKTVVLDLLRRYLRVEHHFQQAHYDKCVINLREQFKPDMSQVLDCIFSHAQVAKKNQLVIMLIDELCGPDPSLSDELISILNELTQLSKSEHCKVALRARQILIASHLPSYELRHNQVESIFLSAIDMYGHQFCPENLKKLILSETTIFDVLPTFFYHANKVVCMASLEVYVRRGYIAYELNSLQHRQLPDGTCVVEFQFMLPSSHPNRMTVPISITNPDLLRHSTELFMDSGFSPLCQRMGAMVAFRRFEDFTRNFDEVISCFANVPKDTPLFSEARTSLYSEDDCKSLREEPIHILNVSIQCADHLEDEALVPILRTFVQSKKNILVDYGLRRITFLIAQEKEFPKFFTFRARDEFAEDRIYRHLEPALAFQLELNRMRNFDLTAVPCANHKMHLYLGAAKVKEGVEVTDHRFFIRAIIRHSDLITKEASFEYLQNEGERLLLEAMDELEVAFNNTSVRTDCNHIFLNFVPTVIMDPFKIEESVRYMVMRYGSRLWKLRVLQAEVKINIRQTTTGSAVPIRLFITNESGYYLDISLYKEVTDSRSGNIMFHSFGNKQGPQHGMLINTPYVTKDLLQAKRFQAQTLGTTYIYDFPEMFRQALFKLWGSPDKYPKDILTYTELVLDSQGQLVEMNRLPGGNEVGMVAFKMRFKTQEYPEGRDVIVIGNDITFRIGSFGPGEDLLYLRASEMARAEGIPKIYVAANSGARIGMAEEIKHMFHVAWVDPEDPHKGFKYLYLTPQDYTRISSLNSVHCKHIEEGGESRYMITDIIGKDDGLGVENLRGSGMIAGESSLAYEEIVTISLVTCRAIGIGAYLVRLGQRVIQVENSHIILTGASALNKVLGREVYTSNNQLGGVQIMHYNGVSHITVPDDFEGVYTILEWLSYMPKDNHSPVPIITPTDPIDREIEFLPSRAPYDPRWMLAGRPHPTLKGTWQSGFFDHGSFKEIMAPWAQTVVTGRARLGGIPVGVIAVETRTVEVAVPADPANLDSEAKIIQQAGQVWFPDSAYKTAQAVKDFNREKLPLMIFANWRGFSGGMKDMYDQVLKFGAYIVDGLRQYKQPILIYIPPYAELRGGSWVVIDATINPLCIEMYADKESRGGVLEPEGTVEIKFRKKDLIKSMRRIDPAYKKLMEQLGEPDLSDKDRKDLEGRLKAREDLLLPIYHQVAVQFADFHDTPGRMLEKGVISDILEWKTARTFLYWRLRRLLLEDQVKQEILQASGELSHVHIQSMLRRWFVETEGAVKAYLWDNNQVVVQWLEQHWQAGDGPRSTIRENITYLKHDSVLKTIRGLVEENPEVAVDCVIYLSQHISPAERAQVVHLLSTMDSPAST

Question: How did the “ACC2 inhibitory rates (%) at 10 μM” value turn out when `CC(=O)N[C@@H](C)COc1cc2oc(-c3cc(F)c(OCC4CC4(F)F)c(F)c3)nc2cn1` (stereo partly drawn) [Example 86, N-((2S)-1-((2-(4-((2,2-difluorocyclopropyl)methoxy)-3,5-difluorophenyl)[1,3]oxazolo[4,5-c]pyridin-6-yl)oxy)propan-2-yl)acetamide] was run?
Answer: 89%

Question: With `CC(=O)NC(C)COC1CCc2oc(-c3ccc(OCC4CC4)c(F)c3)nc2C1` (stereo not drawn) [Example 51d, N-(1-((2-(4-(cyclopropylmethoxy)-3-fluorophenyl)-4,5,6,7-tetrahydro-1,3-benzoxazol-5-yl)oxy)propan-2-yl)acetamide] as the molecule, how does the “ACC2 inhibitory rates (%) at 10 μM” value read?
Answer: 95%

Same assay, conditions: 10 μM of the test compound; read-out: ACC2 inhibitory rates (%) at 10 μM

Question: How did the inhibition at 10 µM turn out when `CC(=O)N[C@@H](C)COc1cc2oc(-c3cc(F)c(OCC4CC4)c(F)c3)nc2cn1` [Example 47, N-((2S)-1-((2-(4-(cyclopropylmethoxy)-3,5-difluorophenyl)[1,3]oxazolo[4,5-c]pyridin-6-yl)oxy)propan-2-yl)acetamide] was run?
Answer: 91%

Question: `CC(=O)N[C@@H](C)COc1cc2oc(-c3ncc(OC[C@H]4CC4(F)F)cc3Cl)nc2cn1` [Example 163, N-((2S)-1-((2-(3-chloro-5-(((1R)-2,2-difluorocyclopropyl)methoxy)pyridin-2-yl)[1,3]oxazolo[4,5-c]pyridin-6-yl)oxy)propan-2-yl)acetamide] was tested. Which inhibition at 10 µM did it give?
Answer: 93%

Question: How did the inhibition at 10 µM turn out when `CC(=O)NC(C)COC1CCc2oc(-c3ccc(OCC4CC4)c(F)c3)nc2C1` (stereo not drawn) [Example 51c, N-(1-((2-(4-(cyclopropylmethoxy)-3-fluorophenyl)-4,5,6,7-tetrahydro-1,3-benzoxazol-5-yl)oxy)propan-2-yl)acetamide] was run?
Answer: 84%

Question: For `CC(=O)N[C@@H](C)COc1cc2oc(-c3cc(F)c(OCC4CC4(F)F)c(F)c3)nc2cn1` (stereo partly drawn) [Example 131, N-((2S)-1-((2-(4-((2,2-difluorocyclopropyl)methoxy)-3,5-difluorophenyl)[1,3]oxazolo[4,5-c]pyridin-6-yl)oxy)propan-2-yl)acetamide], which inhibition at 10 µM is on record?
Answer: 96%

Question: For `CC(=O)N[C@@H](C)COc1cc2oc(-c3ccc(OCC4(C)CC4(F)F)c(F)c3)nc2cn1` (stereo partly drawn) [Example 159, N-((2S)-1-((2-(4-((2,2-difluoro-1-methylcyclopropyl)methoxy)-3-fluorophenyl)[1,3]oxazolo[4,5-c]pyridin-6-yl)oxy)propan-2-yl)acetamide], which inhibition at 10 µM is on record?
Answer: 80%

Question: How did the inhibition at 10 µM turn out when `CC(=O)N[C@@H](C)COc1cc2oc(-c3ccc(OCC4CC4(F)F)c(F)c3)nc2cn1` (stereo partly drawn) [Example 49, N-((2S)-1-((2-(4-((2,2-difluorocyclopropyl)methoxy)-3-fluorophenyl)[1,3]oxazolo[4,5-c]pyridin-6-yl)oxy)propan-2-yl)acetamide] was run?
Answer: 94%

Question: How did the inhibition at 10 µM turn out when `CC(=O)N[C@@H](C)COc1cc2oc(-c3cnc(OCC4CC4)cc3C)nc2cn1` [Example 122, N-((2S)-1-((2-(6-(cyclopropylmethoxy)-4-methylpyridin-3-yl)[1,3]oxazolo[4,5-c]pyridin-6-yl)oxy)propan-2-yl)acetamide] was run?
Answer: 84%

Question: For `CC(=O)N[C@@H](C)COc1cc(F)c2nc(-c3ccc(OCC4CC4)c(F)c3)oc2c1` [Example 43, N-((2S)-1-((2-(4-(cyclopropylmethoxy)-3-fluorophenyl)-4-fluoro-1,3-benzoxazol-6-yl)oxy)propan-2-yl)acetamide], which inhibition at 10 µM is on record?
Answer: 92%

Question: `CC(=O)N[C@@H](C)COc1cc2oc(-c3cnc(OCC4CC4)c(Cl)c3)nc2cn1` [Example 35, N-((2S)-1-((2-(5-chloro-6-(cyclopropylmethoxy)pyridin-3-yl)[1,3]oxazolo[4,5-c]pyridin-6-yl)oxy)propan-2-yl)acetamide] was tested. Which inhibition at 10 µM did it give?
Answer: 83%

Question: How did the inhibition at 10 µM turn out when `C[C@@H](COc1ccc2nc(-c3ccc(OCC4CC4)c(F)c3)oc2c1)NC(=O)N(C)C` [Example 10, 3-((2S)-1-((2-(4-(cyclopropylmethoxy)-3-fluorophenyl)-1,3-benzoxazol-6-yl)oxy)propan-2-yl)-1,1-dimethylurea] was run?
Answer: 91%
